What was measured:
IFNγ = experiment: Ex vivo LPS-stimulated human whole blood, IFNγ production; assay type: cell-based; conditions: mean values
Procedure: Venous blood from human donors was collected as 10 ml aliquots in tubes containing sodium heparin (BD Vacutainer from Becton Dickinson and Company, Franklin Lakes, NY). Blood was added to sterile polystyrene round bottom 96-well tissue culture plates (Corning Costar) at 100 µl/well, omitting the outside wells. Media (RPMI Medium 1640 with L-glutamine, Invitrogen Corporation, Carlsbad, CA) was added to the blood in 90 µl aliquots for a total volume of 190 µl. Outside wells were filled with 200 µl of media. Blood was placed in a humidified 37°C incubator with 5% CO2 while compounds were prepared (nearly 60 minutes).
Compounds were prepared from 10 mM stock solutions in dimethylsulfoxide (DMSO, Sigma-Aldrich). […] Final DMSO and ethanol concentrations in the assay were 0.1 % and 1.5%. The samples were gently triturated twice to mix and replaced in the incubator. LPS stock (E. coli serotype 0111:B4, Sigma-Aldrich), stored in aliquots of 100 µg/ml in RPMI at -20°C, was diluted 1/50 in RPMI to make a working stock solution. After 60 minutes of incubation, 10 µl of the prepared LPS working stock was added to the blood to a final concentration of 100 ng/ml, omitting wells to be used as negative control. The samples were again gently triturated and the plates incubated overnight for 22 hours. Following incubation, the blood was centrifuged at 1500 x g for 5 minutes and the plasma removed to either freeze at -20°C or assay for cytokine release.
IL-1β, IFNγ,IL-6, and TNFα protein levels were measured using Meso Scale assay kits (Meso Scale Discovery, Gaithersburg, MD). Reagents were allowed to come to room temperature. Meso Scale plates were blocked with 30 µl of human plasma/serum assay diluent with gentle shaking for 60 minutes at room temperature. Plates were washed 3x with wash buffer (PBS, Invitrogen Corporation, with 0.05% Tween-20, Sigma-Aldrich). Calibrators for standard curves were prepared in human plasma/serum assay diluent as a 1/5 serial dilution to achieve final concentrations ranging from 50000 pg/ml to 3.2 pg/ml. Samples and calibrators were added at 20 µl/well, then incubated at room temperature with gentle shaking for 90 minutes. Plates were again washed 3 times with wash buffer. Detection antibody was diluted in human plasma/serum antibody diluent to 1 µg/ml and added to the plate at 20 µl/well. Plates were incubated as before for 60 minutes and washed again. Read Buffer T (4x) was diluted 1:1 with mqH2O to 2 times concentration and 150 µl added to each well. Plates were analyzed on the SECTOR Imager 6000 (Meso Scale Discovery) to generate raw signal values.
Individual values were compared to positive and negative controls (vehicle treated blood with LPS and vehicle treated blood without LPS, respectively) to generate % inhibition. Triplicate values were averaged for each donor. The values for two donors were averaged (only one donor was used for IL-1β) and graphed using 4-parameter fit curves in the GraFit 5.0.11 application.

[1] = Cortical bone histomorphometry to determine bone formation rate (BFR); assay type: in vivo, mice
Procedure: Calcein incorporates into the bone mineral and allows measurement of bone formation rate. Calcein was dissolved in 2% sodium bicarbonate. During the tissue harvest, the left tibiae were excised and cleaned for cortical histomorphometry measurements. After all skin and muscle were removed, tibiae were placed in 70% ethanol (4°C) in the dark for a minimum of 24 hours.
Ground transverse sections were used for histomorphometric analysis of cortical bone. Bones were sectioned using a low-speed saw (Isomet, Buehler, Lake Bluff, IL) equipped with a diamond wafer blade. The end of each tibia was removed proximal to tibia-fibula synostosis and a […] cross-section was cut. Using a roughened glass plate and a cork, sections were ground to […] until transparent and all labels were distinguishable under a fluorescent microscope. […] Using the Osteomeasure Bone Analysis Program (Osteometrics, Inc., Decatur, Georgia), bone formation rate was calculated by tracing the 1^s1 and 3rd fluorescent labels and the inner and outer perimeter of the bone. Bone formation rate was calculated by the following equation: (Inter-label width/Label interval) * (Labeled perimeter/Bone perimeter). At least five samples were measured from each treatment group in each study.

[2] = system: house dust mite-induced BAL inflammatory cell influx; experiment: House dust mite model of asthma; assay type: in vivo, Mice; conditions: p.o., b.i.d., BAL fluid
[3] = Caco-2 cell monolayer A→B permeability assay; conditions: human
Description: The Caco-2 cell monolayer is an in vitro tissue culture model of the intestinal epithelium. These cells are of human colonic origin and become polarized, fully differentiated enterocytes in 2-3 weeks. Once differentiated, these cells have tight junctions and express various biochemical processes such as active efflux transporters including P-glycoprotein (P-gp). With this model, it is possible to determine the apparent permeability (Papp) of a compound across the polarized Caco-2 cell monolayer.
An A→B Assay is performed with Caco-2 cell monolayers to determine compound Papp from A chamber to B chamber. This Papp is representative of luminal (gut) to serosal (blood) compound transport across intestinal epithelium that may be seen during intestinal absorption.

Cc1ncccc1NC(=O)c1ccc2c(c1)CC[C@@H]1C[C@@](O)(C(F)(F)F)CC[C@@]21Cc1ccccc1 [Example 1, (4βS,7R,8αR)-4β-benzyl-7-hydroxy-N-(2-methylpyridin-3-yl)-7-(trifluoromethyl)-4β,5,6,7,8,8α,9,10-octahydrophenanthrene-2-carboxamide]
inhibition at 0.000457247 µM (IFNγ; 0.457247 nM): 16.9%
inhibition at 0.00137174 µM (IFNγ; 1.371742 nM): 19.8%
inhibition at 0.00411523 µM (IFNγ; 4.115226 nM): -3.18%
inhibition at 0.0123457 µM (IFNγ; 12.34568 nM): 26.7%
inhibition at 0.037037 µM (IFNγ; 37.03704 nM): 51%
inhibition at 0.111111 µM (IFNγ; 111.1111 nM): 60.6%
inhibition at 0.333333 µM (IFNγ; 333.3333 nM): 73.5%
inhibition at 1 µM (IFNγ; 1000 nM): 78.7%
Cortical bone formation rate (BFR) EAUC50 ([1]; data set 2): 0.35
Cortical bone formation rate (BFR) EAUC80 ([1]; data set 2): 1.76
Cortical bone formation rate (BFR) EAUC50 (AUC 0-4 hr) ([1]; mice): 270 ng·h/mL
Cortical bone formation rate (BFR) EAUC80 (AUC 0-4 hr) ([1]; mice): 1550 ng·h/mL
Eosinophils (% inhibition) ([2]; 0.1 mg/kg): 42%
Lymphocytes (% inhibition) ([2]; 0.1 mg/kg): 34%
Neutrophils (% inhibition) ([2]; 0.1 mg/kg): 29%
T-cells (% inhibition) ([2]; 0.1 mg/kg): 39%
Total cells (% inhibition) ([2]; 0.1 mg/kg): 22%
Eosinophils (% inhibition) ([2]; 1 mg/kg): 97%
Lymphocytes (% inhibition) ([2]; 1 mg/kg): 94%
Neutrophils (% inhibition) ([2]; 1 mg/kg): 97%
T-cells (% inhibition) ([2]; 1 mg/kg): 88%
Total cells (% inhibition) ([2]; 1 mg/kg): 72%
Eosinophils (% inhibition) ([2]; 10 mg/kg): 99%
Lymphocytes (% inhibition) ([2]; 10 mg/kg): 97%
Neutrophils (% inhibition) ([2]; 10 mg/kg): 100%
T-cells (% inhibition) ([2]; 10 mg/kg): 96%
Total cells (% inhibition) ([2]; 10 mg/kg): 83%
Papp A→B [3]: 37.5 ×10⁻⁶ cm/s

Reference: patent EP2114888B1, “TRICYCLIC COMPOUNDS AND THEIR USE AS GLUCOCORTICOID RECEPTOR MODULATORS” (priority 2007, dated 2008)
